Key:
[1] = test system: lambsquarters; assay: Test Example 4: herbicidal effect by soil treatment (Table 19, symbol O); type: in vivo, lambsquarters (Chenopodium album); details: AAH 320 g/ha
How it was run: (§1)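 Herbicidal effect was rated 3 weeks after treatment, using the scoring criteria of an earlier test. The compound, formulated as an emulsion and diluted in water to a set herbicide amount, had been sprayed uniformly on soil over freshly sown seeds. Growth took place in a greenhouse at 25° C. to 30° C.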

[2] = test system: velvetleaf; assay: Test Example 5: herbicidal effect by foliage application, plastic box (Table 20, symbol M); type: in vivo, velvetleaf (Abutilon theophrasti); details: foliage application, 320 g/ha, 3 weeks after application
How it was run: (§2)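 Foliar spray test: emulsion formulation diluted in water to a set application rate, sprayed onto 14-day-old plants raised in diluvial soil at 25° C to 30° C under glass. Both herbicidal effect and crop effect rated visually three weeks later.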

[3] = test system: green foxtail; assay: Test Example 5: herbicidal effect by foliage application, plastic box (Table 20, symbol G); type: in vivo, green foxtail (Setaria viridis); details: foliage application, 320 g/ha, 3 weeks after application
How it was run: as §2

[4] = test system: wild oat; assay: Test Example 4: herbicidal effect by soil treatment (Table 19, symbol I); type: in vivo, wild oat (Avena fatua); details: AAH 320 g/ha
How it was run: as §1

[5] = test system: green foxtail; assay: Test Example 4: herbicidal effect by soil treatment (Table 19, symbol G); type: in vivo, green foxtail (Setaria viridis); details: AAH 320 g/ha
How it was run: as §1

[6] = test system: blackgrass; assay: Test Example 4: herbicidal effect by soil treatment (Table 19, symbol J); type: in vivo, blackgrass (Alopecurus myosuroides); details: AAH 320 g/ha
How it was run: as §1

[7] = test system: windgrass; assay: Test Example 4: herbicidal effect by soil treatment (Table 19, symbol L); type: in vivo, windgrass (Apera spica-venti); details: AAH 320 g/ha
How it was run: as §1

[8] = test system: Italian ryegrass; assay: Test Example 4: herbicidal effect by soil treatment (Table 19, symbol K); type: in vivo, Italian ryegrass (Lolium multiflorum); details: AAH 320 g/ha
How it was run: as §1

[9] = test system: wild oat; assay: Test Example 5: herbicidal effect by foliage application, plastic box (Table 20, symbol I); type: in vivo, wild oat (Avena fatua); details: foliage application, 320 g/ha, 3 weeks after application
How it was run: as §2

[10] = test system: southern crabgrass; assay: Test Example 4: herbicidal effect by soil treatment (Table 19, symbol F); type: in vivo, southern crabgrass (Digitaria ciliaris); details: AAH 320 g/ha
How it was run: as §1

[11] = test system: lambsquarters; assay: Test Example 5: herbicidal effect by foliage application, plastic box (Table 20, symbol O); type: in vivo, lambsquarters (Chenopodium album); details: foliage application, 320 g/ha, 3 weeks after application
How it was run: as §2

[12] = test system: barnyard grass; assay: Test Example 5: herbicidal effect by foliage application, plastic box (Table 20, symbol H); type: in vivo, barnyard grass (Echinochloa crus-galli); details: foliage application, 320 g/ha, 3 weeks after application
How it was run: as §2

[13] = test system: late watergrass; assay: Test Example 1: herbicidal activity, application before weed generation under submerged conditions (Table 16, symbol A); type: in vivo, late watergrass (Echinochloa oryzicola); details: 320 g/ha applied herbicide
How it was run: (§3)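 Submerged Wagner pots (alluvial soil, 4 cm water) sown with weed seeds and planted with 2.5-leaf rice seedlings; emulsifiable concentrate diluted in water applied to water surface on sowing day. Held in greenhouse at 25-30 °C; injury scored 0-5 by herbicidal rate after three weeks.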

[14] = test system: windgrass; assay: Test Example 5: herbicidal effect by foliage application, plastic box (Table 20, symbol L); type: in vivo, windgrass (Apera spica-venti); details: foliage application, 320 g/ha, 3 weeks after application
How it was run: as §2

[15] = test system: persian speedwell; assay: Test Example 5: herbicidal effect by foliage application, plastic box (Table 20, symbol R); type: in vivo, Persian speedwell (Veronica persica); details: foliage application, 320 g/ha, 3 weeks after application
How it was run: as §2

[16] = test system: barnyard grass; assay: Test Example 4: herbicidal effect by soil treatment (Table 19, symbol H); type: in vivo, barnyard grass (Echinochloa crus-galli); details: AAH 320 g/ha
How it was run: as §1

[17] = test system: oval-leafed pondweed; assay: Test Example 1: herbicidal activity, application before weed generation under submerged conditions (Table 16, symbol C); type: in vivo, oval-leafed pondweed (Monochoria vaginalis); details: 320 g/ha applied herbicide
How it was run: as §3

[18] = test system: blackgrass; assay: Test Example 5: herbicidal effect by foliage application, plastic box (Table 20, symbol J); type: in vivo, blackgrass (Alopecurus myosuroides); details: foliage application, 320 g/ha, 3 weeks after application
How it was run: as §2

[19] = test system: redroot pigweed; assay: Test Example 4: herbicidal effect by soil treatment (Table 19, symbol N); type: in vivo, redroot pigweed (Amaranthus retroflexus); details: AAH 320 g/ha
How it was run: as §1

[20] = test system: velvetleaf; assay: Test Example 4: herbicidal effect by soil treatment (Table 19, symbol M); type: in vivo, velvetleaf (Abutilon theophrasti); details: AAH 320 g/ha
How it was run: as §1

[21] = test system: rice flat sedge; assay: Test Example 3: herbicidal effect by foliage application, Wagner pot (Table 18, symbol E); type: in vivo, rice flat sedge (Cyperus iria); details: 320 g/ha
How it was run: (§4)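 Plants were sown in alluvial soil held under 0.1–0.5 cm standing water and grown 14 days in a greenhouse at 25–30 °C. An emulsifiable formulation, water-diluted to the set dose, was then sprayed onto the foliage, and effects were scored three weeks later using previously defined criteria.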

[22] = test system: Italian ryegrass; assay: Test Example 5: herbicidal effect by foliage application, plastic box (Table 20, symbol K); type: in vivo, Italian ryegrass (Lolium multiflorum); details: foliage application, 320 g/ha, 3 weeks after application
How it was run: as §2

[23] = test system: barnyard grass; assay: Test Example 3: herbicidal effect by foliage application, Wagner pot (Table 18, symbol H); type: in vivo, barnyard grass (Echinochloa crus-galli); details: 320 g/ha
How it was run: as §4

[24] = test system: Japanese bulrush; assay: Test Example 1: herbicidal activity, application before weed generation under submerged conditions (Table 16, symbol B); type: in vivo, Japanese bulrush (Schoenoplectus juncoides); details: 320 g/ha applied herbicide
How it was run: as §3

[25] = test system: chickweed; assay: Test Example 4: herbicidal effect by soil treatment (Table 19, symbol P); type: in vivo, common chickweed (Stellaria media); details: AAH 320 g/ha
How it was run: as §1

[26] = test system: Chinese sprangletop; assay: Test Example 3: herbicidal effect by foliage application, Wagner pot (Table 18, symbol D); type: in vivo, chinese sprangletop (Leptochloa chinensis); details: 320 g/ha
How it was run: as §4

[27] = test system: persian speedwell; assay: Test Example 4: herbicidal effect by soil treatment (Table 19, symbol R); type: in vivo, Persian speedwell (Veronica persica); details: AAH 320 g/ha
How it was run: as §1

[28] = test system: southern crabgrass; assay: Test Example 5: herbicidal effect by foliage application, plastic box (Table 20, symbol F); type: in vivo, southern crabgrass (Digitaria ciliaris); details: foliage application, 320 g/ha, 3 weeks after application
How it was run: as §2

For `Cc1nn(C)c(=O)c(-c2c(-c3ccc(OC(C)C#N)cc3)sc3ccccc23)c1O` (racemic) [1-236], the “O: lambsquarters, herbicidal effect rating” value [1] was 4 (Herbicidal rate of 70% or more and less than 90%), the “effect on velvetleaf (M)” value [2] was 5 (Herbicidal rate of 90% or more (almost completely withered)) and the “effect on green foxtail (G)” value [3] was 4 (Herbicidal rate of 70% or more and less than 90%). For the same compound, the “I: wild oat, herbicidal effect rating” value [4] was 0 (Herbicidal rate of 5% or less (almost no effect)), the “G: green foxtail, herbicidal effect rating” value [5] was 4 (Herbicidal rate of 70% or more and less than 90%) and the “J: blackgrass, herbicidal effect rating” value [6] was 0 (Herbicidal rate of 5% or less (almost no effect)). For the same compound, the “L: windgrass, herbicidal effect rating” value [7] was 0 (Herbicidal rate of 5% or less (almost no effect)), the “K: Italian ryegrass, herbicidal effect rating” value [8] was 3 (Herbicidal rate of 40% or more and less than 70%) and the “effect on wild oat (I)” value [9] was 5 (Herbicidal rate of 90% or more (almost completely withered)). For the same compound, the “F: southern crabgrass, herbicidal effect rating” value [10] was 4 (Herbicidal rate of 70% or more and less than 90%), the “effect on lambsquarters (O)” value [11] was 5 (Herbicidal rate of 90% or more (almost completely withered)) and the “effect on barnyard grass (H)” value [12] was 5 (Herbicidal rate of 90% or more (almost completely withered)). For the same compound, the “Herbicidal effect on A: late watergrass (grade 0-5)” value [13] was 3 (Herbicidal rate of 40% or more and less than 70%), the “effect on windgrass (L)” value [14] was 0 (Herbicidal rate of 5% or less (almost no effect)) and the “effect on persian speedwell (R)” value [15] was 5 (Herbicidal rate of 90% or more (almost completely withered)). The “H: barnyard grass, herbicidal effect rating” value [16] was 5 (Herbicidal rate of 90% or more (almost completely withered)), the “Herbicidal effect on C: oval-leafed pondweed (grade 0-5)” value [17] was 0 (Herbicidal rate of 5% or less (almost no effect)) and the “effect on blackgrass (J)” value [18] was 4 (Herbicidal rate of 70% or more and less than 90%). For the same compound, the “N: redroot pigweed, herbicidal effect rating” value [19] was 5 (Herbicidal rate of 90% or more (almost completely withered)), the “M: velvetleaf, herbicidal effect rating” value [20] was 1 (Herbicidal rate of 5% or more and less than 20%) and the “herbicidal effect on E (rice flat sedge), rating 0-5” value [21] was 5 (Herbicidal rate of 90% or more (almost completely withered)). For the same compound, the “effect on Italian ryegrass (K)” value [22] was 5 (Herbicidal rate of 90% or more (almost completely withered)), the “herbicidal effect on H (barnyard grass), rating 0-5” value [23] was 5 (Herbicidal rate of 90% or more (almost completely withered)) and the “Herbicidal effect on B: Japanese bulrush (grade 0-5)” value [24] was 0 (Herbicidal rate of 5% or less (almost no effect)). The “P: chickweed, herbicidal effect rating” value [25] was 4 (Herbicidal rate of 70% or more and less than 90%), the “herbicidal effect on D (Chinese sprangletop), rating 0-5” value [26] was 5 (Herbicidal rate of 90% or more (almost completely withered)) and the “R: persian speedwell, herbicidal effect rating” value [27] was 4 (Herbicidal rate of 70% or more and less than 90%). For the same compound, the “effect on southern crabgrass (F)” value [28] was 4 (Herbicidal rate of 70% or more and less than 90%).

— US20230085307A1, “PYRIDAZINONE COMPOUND AND HERBICIDE” (NISSAN CHEMICAL CORPORATION, priority 2019, published 2023)
